Literature values as cited in patent US20130116211A1, “Novel Salts Of Boswellic Acids And Selectively Enriched Boswellic Acids And Processes For The Same” (priority 2005, published 2013).

Tests used:
[1] = molecular target: T1, 5-LOX (Homo sapiens, UniProt P09917)
T1 sequence (P09917 1-674): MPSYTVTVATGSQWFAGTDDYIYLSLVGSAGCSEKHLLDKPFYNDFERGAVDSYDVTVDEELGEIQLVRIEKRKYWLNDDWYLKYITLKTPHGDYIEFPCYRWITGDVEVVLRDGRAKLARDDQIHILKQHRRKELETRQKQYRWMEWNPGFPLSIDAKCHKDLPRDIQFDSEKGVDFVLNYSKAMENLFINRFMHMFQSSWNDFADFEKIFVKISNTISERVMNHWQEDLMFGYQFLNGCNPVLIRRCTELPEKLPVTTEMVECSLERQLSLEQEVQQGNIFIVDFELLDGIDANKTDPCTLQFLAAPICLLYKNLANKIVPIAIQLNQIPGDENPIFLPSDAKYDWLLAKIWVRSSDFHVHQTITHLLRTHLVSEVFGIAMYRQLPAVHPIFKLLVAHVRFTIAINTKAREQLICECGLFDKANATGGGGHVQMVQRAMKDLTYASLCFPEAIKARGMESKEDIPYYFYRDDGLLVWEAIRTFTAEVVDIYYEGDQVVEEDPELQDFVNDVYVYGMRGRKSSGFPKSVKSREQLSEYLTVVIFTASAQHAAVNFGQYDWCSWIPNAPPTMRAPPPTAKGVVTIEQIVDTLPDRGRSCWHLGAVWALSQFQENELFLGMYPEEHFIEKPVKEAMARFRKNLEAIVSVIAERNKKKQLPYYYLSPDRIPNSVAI

[2] = tested on: symptoms of osteoarthritis; settings: relieving the symptoms of osteoarthritis, double-blind studies

Molecule | mechanism of 5-LOX inhibition ([1]; binds in a calcium-dependent and reversible manner (Sailer 1998)) | inhibitory activity against 5-LOX ([1]; compared among all the six boswellic acids (Sailer 1996)) | therapeutic effects versus non steroidal anti-inflammatory drugs [2]
3-O-acetyl-11-keto-β-boswellic acid [AKBA] | non-redox-type, non-competitive inhibitor | most pronounced inhibitory activity | –
N[C@H]1C(O)O[C@H](CO)[C@@H](O)[C@@H]1O.O=S(=O)(O)O (stereo partly drawn) [glucosamine sulfate] | – | – | comparable to or even better than
